This data set concerns CYP1A2. Put plainly: CYP1A2 enzyme activity in iPSC-hepatocytes (Luc-ME luminescence). The class given is cell-based, human. Conditions: in comparison to primary hepatocytes, 5 μM inducer for 48 h. The method, then:
100 μl of this luciferin medium was added to a 96-well white opaque plate with 100 μl luciferin detection reagent, and the luminescence signal was measured on a Cytation 3 Cell Imaging Multi-Mode Reader (BioTek Inc. Winooski, Vt.). After determining the activity, the amount of cells in each scaffold or sandwich culture was analyzed with Quant-iT™ Pico Green kit following the protocols described above.

Molecules are shown by their SMILES.

`Cc1ccc2cc3c(ccc4ccccc43)c3c2c1CC3` [3-methylcholanthrene]: the “induction of CYP1A2 activity” value is reported as “modest”.

The record behind these values is patent publication US20180016548A1, “ACELLULAR SCAFFOLDS FOR MATURATION OF IPSC-HEPATOCYTES” (Northwestern University, priority 2016, published 2018).
